Article PMC8196714, “Design, Radiosynthesis and Preliminary Biological Evaluation in Mice of a Brain-Penetrant ^18F-Labelled σ2 Receptor Ligand” (International Journal of Molecular Sciences, 2021)

Legend:
guinea pig σ1 receptors = guinea pig σ1 receptors (Cavia porcellus, UniProt Q60492); assay: σ1 receptor affinity, competitive binding with [3H]-(+)-pentazocine (WWU); settings: determined at WWU
Text: To decide which of the nine compounds would be suitable for subsequent radiofluorination, we determined the affinity towards the σ1 receptor as the most relevant off-target protein. […] To finally select the best derivative for radiofluorination, we calculated the σ2:σ1 selectivity values and identified RM273 (41) as the most suitable one with a ratio of about 400.

rat VAChT = target: T1, rat VAChT (Rattus norvegicus, UniProt Q62666); assay: Displacement of [3H]vesamicol in membrane homogenates of PC12 cells stably expressing rat VAChT; assay type: binding
T1 construct: expressed in transfected cells; host or cells: PC12 cells
T1 sequence (Q62666 1-530): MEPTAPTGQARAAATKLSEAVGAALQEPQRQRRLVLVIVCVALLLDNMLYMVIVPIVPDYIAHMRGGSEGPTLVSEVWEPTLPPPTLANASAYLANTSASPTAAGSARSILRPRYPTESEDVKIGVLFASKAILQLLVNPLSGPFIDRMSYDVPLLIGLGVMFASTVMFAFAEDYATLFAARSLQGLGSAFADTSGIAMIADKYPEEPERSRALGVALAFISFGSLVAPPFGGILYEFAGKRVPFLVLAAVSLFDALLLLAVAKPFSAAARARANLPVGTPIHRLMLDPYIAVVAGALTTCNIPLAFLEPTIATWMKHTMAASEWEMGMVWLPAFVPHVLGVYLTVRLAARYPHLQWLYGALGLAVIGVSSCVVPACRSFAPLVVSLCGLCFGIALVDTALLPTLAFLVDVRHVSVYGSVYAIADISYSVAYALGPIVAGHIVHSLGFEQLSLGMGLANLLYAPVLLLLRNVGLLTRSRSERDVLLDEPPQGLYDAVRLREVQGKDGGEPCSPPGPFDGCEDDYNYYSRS
Procedure: Because ligands targeting σ receptors may be impaired by off-target binding towards the vesicular acetylcholine transporter (VAChT), we determined in the next step the affinity of RM273 towards this protein.
(§1) Binding affinity experiments to assess the Ki values of test compounds towards rat σ2 receptors, human σ1 receptors, and rat VAChT were performed according to protocols previously published by our group. The same protocol was used to determine the KD and Bmax values of RM273 towards σ2 receptors expressed in F98 cells by homologous competition analyzing the displacement of [^18F]RM273 by RM273.

σ2 receptor [1] = target: T2, σ2 receptor (Rattus norvegicus, UniProt Q5U3Y7); assay: σ2 receptor affinity, inhibition of [3H]DTG binding in rat liver membrane homogenates; set-up: preparations of membrane homogenates obtained from rat liver; from tissue; host or cells: rat liver; settings: for Ki: [3H]DTG, rat liver membrane homogenates
T2 sequence (Q5U3Y7 1-176): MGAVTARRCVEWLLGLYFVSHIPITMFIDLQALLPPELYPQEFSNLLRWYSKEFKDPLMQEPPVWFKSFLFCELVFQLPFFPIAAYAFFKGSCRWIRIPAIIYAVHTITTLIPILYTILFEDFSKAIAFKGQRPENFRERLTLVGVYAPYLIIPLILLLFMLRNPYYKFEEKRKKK
Procedure: Initially, we assessed the affinity of all derivatives towards the target protein and investigated the inhibition of the binding of [^3H]DTG in preparations of membrane homogenates obtained from rat liver, which is known to express high levels of σ2 receptors.
as §1

human σ1 receptors = human σ1 receptors (Homo sapiens, UniProt Q99720); assay: σ1 receptor affinity, competitive binding with [3H]-(+)-pentazocine (HZDR Leipzig); settings: determined at HZDR Leipzig
Procedure: To decide which of the nine compounds would be suitable for subsequent radiofluorination, we determined the affinity towards the σ1 receptor as the most relevant off-target protein.
as §1

σ2 receptor [2] = target: T2, σ2 receptor; assay: In vitro autoradiography on rat brain cryosections (healthy and orthotopic F98 glioblastoma); assay type: binding; set-up: from tissue; host or cells: rat brain cryosections (SPRD healthy; Fisher F344 with orthotopic F98 glioblastoma); settings: autoradiography, co-incubation with competitor at 10^−6 M
Text: Initially, we investigated the binding of [^18F]RM273 on rat brain slices by autoradiography to compare the distribution pattern with that of established σ2 receptor ligands and to examine the target specificity. The highest binding was found in the cortical areas and hippocampal structures. […] Accordingly, we proceeded to investigate, in a rat glioblastoma model, the potential suitability of [^18F]RM273 for molecular characterization of cancer. At first, homologous competition studies using membrane homogenates of the rat glioma cell line F98 were performed to determine the σ2 receptor binding parameters of [^18F]RM273 cells (Figure 3).
We subsequently investigated the binding parameters of [^18F]RM273 by in vitro autoradiography using cryosections of rat brains obtained three weeks after stereotactic implantation of F98 rat glioblastoma cells into the left striatum. Initially, we performed a homologous displacement study to directly compare the binding sites of the new radioligand in a healthy brain and a brain tumor. The inhibition curves presented in Figure 3 indicate binding of [^18F]RM273 to single binding sites in both brain regions. […] Further supporting the assumption of a tumor-specific overexpression of σ2 receptors, a remarkably high density of binding sites of [^18F]RM273 in the F98 tumor tissue was observed (Figure 4). Compared to the healthy tissue (contralateral side), about three times more specific binding sites of [^18F]RM273 were estimated for the tumor region (32 × 10^−9 mol/L vs. 94 × 10^−9 mol/L at 1.5 nM [^18F]RM273).
In vitro autoradiography was performed using cryosections of brains of a healthy rat (SPRD, female, 250 g; Medizinisch-Experimentelles Zentrum, Universität Leipzig, Leipzig, Germany) and brains obtained from rats (Fisher F344/HanZtmRj, male, ≈260 g; Janvier Labs, Le Genest-Saint-Isle, France) 23 days after stereotactic implantation of 5 × 10^4 F98 cells in the […] striatum (n = 2).
Immediately after isolation, the brains were frozen by immersion in isopentane at −25 °C. Cryosections of 12 μm (Microm HM560 cryostat, Thermo Scientific, Schwerte, Germany) were mounted on microscopic glass slides, dried at room temperature, and stored at −25 °C. For the experiment, the slices were dried at room temperature under a stream of cold air before pre-incubation in PBS, pH 7.4, at room temperature for 15 min. […] Co-incubation with serial dilutions of RM273 (10^−10–10^−6 M) was performed to determine an inhibition curve. After 60 min, the incubation at room temperature was terminated by decanting and washing the slides by two consecutive incubations in ice-cold washing buffer (50 mM TRIS-HCl, pH 7.4 at 4 °C) for two min each, followed by dipping in ice-cold demineralized water for 5 sec and drying under a stream of cold air. In parallel, for subsequent quantification of the data obtained from the homologous competition experiment, defined volumes, and thus defined activities of the radioligand solution, were pipetted onto a microscopic glass slide (0.5–3 μL = 0.0355–0.213 kBq) and dried. Afterwards the tissue samples along with the standards were exposed to an ^18F-sensitive phosphor screen (ABC) for two hours. Image acquisition was performed using a phosphorimager (HD-CR 35; DÜRR NDT GmbH & Co. KG, Bietigheim-Bissingen, Germany). Analysis of the digitized images was performed by image analysis software (AIDA; Elysia-raytest GmbH, Straubenhardt, Germany).
Irregular regions of interest (ROI) were drawn on the standard spots and the different brain regions, which were confirmed by Nissl staining of the identical brain sections. Optical density measured in each ROI was expressed as quantum levels per unit area (QL/pixel) with a pixel size of 12.5 μm^2. From the calibration curve obtained from the standards by plotting QL vs. activity, the QL values of the ROIs were converted to activity values followed by conversion to chemical concentration of RM273 based on the molar activity of [^18F]RM273. […]

[3] = set-up: method as in PMID 17579383; settings: 5 min p.i. ref 25; cited from earlier work
[4] = Ki σ1 from guinea pig σ1 receptors

human σ1 receptors, sequence (Q99720 whole entry): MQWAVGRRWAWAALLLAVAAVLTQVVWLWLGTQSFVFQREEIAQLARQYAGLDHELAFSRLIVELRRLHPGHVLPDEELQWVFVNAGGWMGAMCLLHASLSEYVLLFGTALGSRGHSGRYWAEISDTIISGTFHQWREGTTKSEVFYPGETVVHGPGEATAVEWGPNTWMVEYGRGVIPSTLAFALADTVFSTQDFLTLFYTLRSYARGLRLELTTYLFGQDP
guinea pig σ1 receptors, sequence (Q60492 whole entry): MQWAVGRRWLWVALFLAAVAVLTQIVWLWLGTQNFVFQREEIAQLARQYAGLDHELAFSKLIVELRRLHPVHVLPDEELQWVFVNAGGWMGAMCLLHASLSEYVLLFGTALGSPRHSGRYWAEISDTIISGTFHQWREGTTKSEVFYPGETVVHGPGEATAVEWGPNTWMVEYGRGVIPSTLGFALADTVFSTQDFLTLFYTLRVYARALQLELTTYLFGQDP

Compound	Ki (guinea pig σ1 receptors)	Selectivity (Ki σ1/Ki σ2) (σ2 receptor [1]; [4])	Ki (σ2 receptor [1])	Ki (human σ1 receptors)	Selectivity (Ki σ1/Ki σ2) (σ2 receptor [1]; Ki σ1 from human σ1 receptors)	other results
COc1cc2c(cc1OC)CN(CCCCn1ccc3ccc(F)nc31)CC2 [41 (RM273), 2-(4-(6-Fluoro-1H-pyrrolo[2,3-b]pyridin-1-yl)butyl)-6,7-dimethoxy-1,2,3,4-tetrahydroisoquinoline]	691 nM	432	1.6 nM	–	–	Ki (rat VAChT): > 2000 nM; Selectivity (Ki σ1/Ki σ2) (σ2 receptor [1]; Ki σ1 from guinea pig σ1 receptors, listed as RM273 (41)): about 400
COc1cc2c(cc1OC)CN(CCCCn1ccc3cc(F)ccc31)CC2 [Compound 35, 2-(4-(5-Fluoro-1H-indol-1-yl)butyl)-6,7-dimethoxy-1,2,3,4-tetrahydroisoquinoline]	–	–	12 nM	116 nM	9.7	–
COc1cc2c(cc1OC)CN(CCCCn1ccc3ccc(F)cc31)CC2 [Compound 36, 2-(4-(6-Fluoro-1H-indol-1-yl)butyl)-6,7-dimethoxy-1,2,3,4-tetrahydroisoquinoline]	–	–	7.1 nM	46 nM	6.5	–
COc1cc2c(cc1OC)CN(CCCCn1ccc3cccc(F)c31)CC2 [Compound 37, 2-(4-(7-Fluoro-1H-indol-1-yl)butyl)-6,7-dimethoxy-1,2,3,4-tetrahydroisoquinoline]	–	–	10 nM	80 nM	8	–
COc1cc2c(cc1OC)CN(CCCCn1ccc3nc(F)ccc31)CC2 [Compound 39, 2-[4-(5-Fluor-1H-pyrrolo[3,2-b]pyridin-1-yl)butyl]-6,7-dimethoxy-1,2,3,4-tetrahydroisochinolin]	122 nM	32	3.8 nM	–	–	–
COc1cccc2c1CCCC2CCCN1CCN(C2CCCCC2)CC1 (centres unmarked) [PB28, reference compound]	–	–	–	–	–	displacement of [18F]RM273 binding on rat brain slices (σ2 receptor [2]): completely displaceable
Fc1ccc(-n2cc(CCCCN3CCC4(CC3)OCc3ccccc34)c3ccccc32)cc1 [Siramesine, siramesine, reference compound]	–	–	–	–	–	displacement of [18F]RM273 binding on rat brain slices (σ2 receptor [2]): completely displaceable
COc1cc2c(cc1OC)CN(CCCCNC(=O)c1cc(C)ccc1OCC[18F])CC2 [[^18F]ISO-I]	–	–	–	–	–	brain uptake [3]: 0.76 % ID/g

The next lines start with results.

Ki (guinea pig σ1 receptors)	Selectivity (Ki σ1/Ki σ2) (σ2 receptor [1]; [4])	Ki (σ2 receptor [1])	Ki (human σ1 receptors)	Selectivity (Ki σ1/Ki σ2) (σ2 receptor [1]; Ki σ1 from human σ1 receptors)	Compound	other results
916 nM	339	2.7 nM	–	–	COc1cc2c(cc1OC)CN(CCCCn1ccc3ccnc(F)c31)CC2 [42 (RM297), 2-[4-(7-Fluor-1H-pyrrolo[2,3-c]pyridin-1-yl)butyl]-6,7-dimethoxy-1,2,3,4-tetrahydroisochinolin]	–
–	–	14 nM	21 nM	1.5	COc1cc2c(cc1OC)CN(CCCCn1ccc3c(F)cccc31)CC2 [Compound 34, 2-[4-(4-Fluoro-1H-indol-1-yl)butyl]-6,7-dimethoxy-1,2,3,4-tetrahydroisoquinoline]	–
80 nM	14	5.5 nM	–	–	COc1cc2c(cc1OC)CN(CCCCn1ccc3c(F)nccc31)CC2 [Compound 38, 2-[4-(4-Fluor-1H-pyrrolo[3,2-c]pyridin-1-yl)butyl]-6,7-dimethoxy-1,2,3,4-tetrahydroisochinolin]	–
85 nM	85	1 nM	–	–	COc1cc2c(cc1OC)CN(CCCCn1ccc3cc(F)ncc31)CC2 [Compound 40, 2-[4-(5-Fluor-1H-pyrrolo[2,3-c]pyridin-1-yl)butyl]-6,7-dimethoxy-1,2,3,4-tetrahydroisochinolin]	–
